Reference: patent publication US20220339160A1, “ADENOSINE RECEPTOR ANTAGONIST” (priority 2019, published 2022)
Read-outs that look alike come from different tables or passages of the source.

What was measured:
[1] = biological target: A2A receptor (Homo sapiens, UniProt P29274); experiment: A2A receptor antagonist functional assay (cAMP, A2A cell line); assay type: cell-based
Procedure: (§1) A2a/A2B Receptor Antagonist Functional Assay Test:
(§2) The A2A cell line was derived from PerkinElmer (Product ID: ES-011-C); the A2B cell line was derived from PerkinElmer (Product ID: ES-013-C). The experimental procedure was referred to ACS Medicinal Chemistry Letters (2011) 2, 213-218; the specific test was completed by Pharmaron Beijing Co., Ltd. with the following steps: 10 nL of compound stock in DMSO (10 mM) followed by 10 μL of A2A or A2B cell suspension (30000 cells/mL) were transferred to assay wells of a 384-well plate at room temperature and incubated for 20 minutes at room temperature. The corresponding amount of 5′-N-ethylcarboxamidoadenosine at EC80 activation concentration was transferred to each test well, and incubated for another 30 minutes at 37° C., 5% CO2, 95% humidity, then Eu-cAMP tracer working solution and Ulight-anti-cAMP working solution were added to the cell culture plate at 5 uL/well in sequence, and the cell plate fluorescence was read with Envision (excitation wavelength: 320 nm, emission wavelength: 665 nm and 615 nm). The corresponding inhibition rate in each well was obtained according to the following formula, and a sigmoidal dose-inhibition rate curve was plotted using a non-linear regression model to calculate the IC50 value.

[2] = biological target: T1, A2B receptor (Homo sapiens, UniProt P29275); experiment: cell-based
T1 sequence (P29275 1-332): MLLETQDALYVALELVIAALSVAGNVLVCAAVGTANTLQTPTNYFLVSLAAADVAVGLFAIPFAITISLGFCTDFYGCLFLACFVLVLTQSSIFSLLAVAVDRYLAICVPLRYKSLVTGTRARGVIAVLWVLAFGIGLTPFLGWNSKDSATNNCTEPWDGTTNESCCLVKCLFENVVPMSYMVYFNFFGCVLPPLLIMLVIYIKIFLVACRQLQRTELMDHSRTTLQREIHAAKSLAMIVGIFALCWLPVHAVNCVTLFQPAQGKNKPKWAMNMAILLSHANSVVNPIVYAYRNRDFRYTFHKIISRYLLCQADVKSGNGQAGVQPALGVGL
Procedure: as §1
as §2, with “The experimental procedure was referred to ACS Medicinal Chemistry Letters (2011) 2, 213-218; the specific test was completed by Pharmaron Beijing Co., Ltd. with the following steps: 10 nL of compound stock in DMSO (10 mM) followed by 10 μL of A2A or A2B cell suspension (30000 cells/mL) were transferred to assay wells of a 384-well plate at room temperature and incubated for 20 minutes at room temperature.” left out

[3] = A2A cell line (PerkinElmer ES-011-C), 5'-N-ethylcarboxamidoadenosine at EC80, cAMP readout, read-out: A2A Antagonistic function IC50
[4] = A2B cell line (PerkinElmer ES-013-C), 5'-N-ethylcarboxamidoadenosine at EC80, cAMP readout, read-out: A2B Antagonistic function IC50

Sequence of A2A receptor (P29274 whole entry): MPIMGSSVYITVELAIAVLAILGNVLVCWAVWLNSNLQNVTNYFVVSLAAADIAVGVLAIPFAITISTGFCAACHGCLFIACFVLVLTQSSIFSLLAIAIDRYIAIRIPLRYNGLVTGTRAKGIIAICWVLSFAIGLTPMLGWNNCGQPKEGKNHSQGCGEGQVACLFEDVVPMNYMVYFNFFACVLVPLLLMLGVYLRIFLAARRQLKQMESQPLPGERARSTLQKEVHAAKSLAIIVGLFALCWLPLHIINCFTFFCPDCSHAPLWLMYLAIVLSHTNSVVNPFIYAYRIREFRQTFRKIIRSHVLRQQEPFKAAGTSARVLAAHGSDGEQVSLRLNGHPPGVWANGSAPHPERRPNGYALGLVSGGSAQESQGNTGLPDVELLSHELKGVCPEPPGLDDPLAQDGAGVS

IC50 [2] [nM]	IC50 [1, 3] [nM]	IC50 ([1]; read-out: A2A Antagonistic function IC50) [nM]	Structure (SMILES)	IC50 [1] [nM]	IC50 [2, 4] [nM]
25	1.8		COCc1cccc(Cc2cnn3c(-c4ccc(C)o4)nc(N)nc23)n1 [Compound 2]		
			COCc1cccc(Cc2cnn3c(-c4cccs4)nc(N)nc23)n1 [Compound 3]	96	
			COCc1cccc(Cc2cnn3c(-n4ccc(C)n4)nc(N)nc23)n1 [Compound 4]	17	
16.7	5.3		Cc1ccc(-c2nc(N)nc3c(Cc4cccc(CO)n4)cnn23)o1 [Compound 5]		
			Cc1ccc(-c2nc(N)nc3c(Cc4cccc(CBr)n4)cnn23)o1 [Compound 6]	10.2	
103		7.1	COCCOCc1cccc(Cc2cnn3c(-c4ccc(C)o4)nc(N)nc23)n1 [Compound 7]		
			COCCNCc1cccc(Cc2cnn3c(-c4ccc(C)o4)nc(N)nc23)n1 [Compound 8]	31	117
			Cc1ccc(-c2nc(N)nc3c(Cc4cccc(COC5CC5)n4)cnn23)o1 [Compound 9]	3.6	51
			Cc1ccc(-c2nc(N)nc3c(Cc4ccc(F)cc4F)cnn23)o1 [Compound 10]	5	16.4
			Cc1ccc(-c2nc(N)nc3c(Cc4ccc(F)cc4C)cnn23)o1 [Compound 11]	39	420
			Cc1ccc(-c2nc(N)nc3c(Cc4c(F)cc(F)cc4F)cnn23)o1 [Compound 12]	1.5	3.8
			Cc1ccc(-c2nc(N)nc3c(CC4CCCCC4)cnn23)o1 [Compound 13]	5.7	
			Cc1ccc(-c2nc(N)nc3c(CC4CCCC4)cnn23)o1 [Compound 14]	10.4	
			Cc1ccc(-c2nc(N)nc3c(CC4CCC4)cnn23)o1 [Compound 15]	16	
			COc1cccc(Cc2cnn3c(-c4ccc(C)o4)nc(N)nc23)n1 [Compound 16]	2.3	18.6
			Cc1ccc(-c2nc(N)nc3c(Cc4cccc(CO[C@H]5CCOC5)[n+]4[O-])cnn23)o1 [Compound 17]	90	1030

IC50 [2] [nM]	IC50 [1, 3] [nM]	IC50 ([1]; read-out: A2A Antagonistic function IC50) [nM]	Structure (SMILES)	IC50 [1] [nM]	IC50 [2, 4] [nM]
108	9.1		Cc1ccc(-c2nc(N)nc3c(Cc4cccc(CO[C@H]5CCOC5)n4)cnn23)o1 [Compound 18]		
			COCCNc1cccc(Cc2cnn3c(-c4ccc(C)o4)nc(N)nc23)n1 [Compound 21]	4.7	36
			Cc1ccc(-c2nc(N)nc3c(Cc4cccc(N)n4)cnn23)o1 [Compound 22]	5.8	1.6
			Nc1cccc(Cc2cnn3c(-c4ccco4)nc(N)nc23)n1 [Compound 23]	46	13
			Cc1ccc(-c2nc(N)nc3c(Cc4cccc(N)c4)cnn23)o1 [Compound 24]	3	7.9
			Nc1cccc(Cc2cnn3c(-c4ccco4)nc(N)nc23)c1 [Compound 25]	35	60
			Cc1ccc(-c2nc(N)nc3c(Cc4ccc(N)cc4)cnn23)o1 [Compound 26]	17.4	2.7
			Cc1ccc(-c2nc(N)nc3c(Cc4ccccc4N)cnn23)o1 [Compound 27]	1.9	9.7
			Cc1ccc(-c2nc(N)nc3c(Cc4cc(N)c(F)cc4F)cnn23)o1 [Compound 28]	1.6	7.7
			Cc1ccc(-c2nc(N)nc3c(Cc4ccc(N)c(C)c4)cnn23)o1 [Compound 29]	5.5	15.3
			Cc1ccc(-c2nc(N)nc3c(Cc4ccc(N)c(C)c4)c(C)nn23)o1 [Compound 30]	5	
			Cc1ccc(N)c(Cc2cnn3c(-c4ccc(C)o4)nc(N)nc23)c1 [Compound 44]	6.2	155
			Cc1ccc(-c2nc(N)nc3c(Cc4cccc(N)c4)c(C)nn23)o1 [Compound 45]	1.9	6.2
			Cc1ccc(-c2nc(N)nc3c(Cc4cccc(N)c4)c(Cl)nn23)o1 [Compound 46]	1.5	4.6
			Cc1ccc(-c2nc(N)nc3c(Cc4cccc(N)c4)c(F)nn23)o1 [Compound 47]	1.4	4
			Cn1ccc(-c2nc(N)nc3c(Cc4cccc(N)c4)cnn23)n1 [Compound 48]	29.1	83.5

Structure (SMILES)	IC50 [2] [nM]	IC50 [1, 3] [nM]	IC50 ([1]; read-out: A2A Antagonistic function IC50) [nM]	IC50 [1] [nM]	IC50 [2, 4] [nM]
Cc1ccc(-c2nc(N)nc3c(Cc4ccc(F)cc4)cnn23)o1 [Compound 1]	16			3.3	
Cc1ccc(-c2nc(N)nc3c(Cc4cccc(C(C)(C)O)n4)cnn23)o1 [Compound 19]	70.5			1.7	
Cc1ccc(-c2nc(N)nc3c(Cc4cccc(NCc5ccccc5)n4)cnn23)o1 [Compound 20]	26			5.5	
